{"source": "patent US20220323383A1", "about": "“SMALL-MOLECULAR ADJUVANTS AND IMPLEMENTATIONS THEREOF” (JAWAHARLAL NEHRU CENTRE FOR ADVANCED SCIENTIFIC RESEARCH, priority 2019, published 2022)", "type_in_all_cases": "cell-based", "key": {"P. aeruginosa R590 [1]": {"test_system": "P. aeruginosa R590", "assay": "Chequerboard combination efficacy of adjuvant with antibiotics", "details": "P. aeruginosa R590", "summary_of_the_method": "(§1)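 Two-fold chequerboard broth microdilution of adjuvant plus antibiotic; 6 h cultures in peptone diluted to ~10^5 cfu/mL, incubated 24 h at 37 °C, 150 rpm, OD600 read. Wells matching media control define inhibitory concentrations; FIC index (FICantibiotic+FICadjuvant) and potentiation factor (MIC alone/MIC with adjuvant) calculated.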"}, "E. coli R3336": {"test_system": "E. coli R3336", "assay": "Chequerboard combination efficacy of adjuvant with antibiotics", "summary_of_the_method": "as §1"}, "A. baumannii R674": {"test_system": "A. baumannii R674", "assay": "Bactericidal time-kill kinetics", "details": "combination of rifampicin and Compound 13 (4 μg/mL+2 μg/mL and 8 μg/mL+2 μg/mL)", "experimental": "(§2) Briefly, A. baumannii R674 and P. aeruginosa R590 were grown in nutrient broth at 37° C. for 6 h. Combinations of Compound 13 and rifampicin (4 μg/mL+2 μg/mL and 8 μg/mL+2 μg/mL) and rifampicin alone (32 μg/mL) were inoculated with aliquots of A. baumannii R674 suspended in fresh media at ˜1.8×10^5 CFU/mL. Similarly, combination of […] and fusidic acid (8 μg/mL+1 μg/mL), Compound 15 (128 μg/mL) and fusidic acid (16 μg/mL) were inoculated with aliquots of P. aeruginosa R590 suspended in fresh media at ˜1.8×10^5 CFU/mL. After specified time intervals (0, 1, 2, 4, 6 and 12 h), 20 μL aliquots were serially diluted 10-fold in 0.9% saline, plated on sterile MacConkey agar plates and incubated at 37° C. overnight. The viable colonies were counted the next day and represented as logio (CFU/mL) (FIG. 1). Combination of rifampicin and Compound 13 could completely kill the bacteria in 2 h and combination of fusidic acid and Compound 14 could kill bacteria in 12 h."}, "P. aeruginosa R590 [2]": {"test_system": "P. aeruginosa R590", "assay": "Bactericidal time-kill kinetics", "details": "combination with fusidic acid (8 μg/mL+1 μg/mL)", "experimental": "as §2"}}, "note": "Structures can show the parent of a compound that is named as a salt."}
{"smiles": "NCCCC[C@H](N)C(=O)NCCCCCCN(CCCCCCNC(=O)[C@@H](N)CCCCN)C(=O)Cc1cccc2ccccc12", "note": "[Compound 13, N,N-bis-[(6-(^LLys)amido)hexyl] naphthyl ethanamide tetrakistrifluoroacetate]", "values": [{"measurement": "FICI", "setting": "P. aeruginosa R590 [1]; antibiotic Chloramphenicol", "value": 0.375}, {"measurement": "MIC of antibiotic in presence of adjuvant", "setting": "P. aeruginosa R590 [1]; antibiotic Chloramphenicol", "value": 32, "unit": "µg/mL"}, {"measurement": "Potentiation factor", "setting": "P. aeruginosa R590 [1]; antibiotic Chloramphenicol", "value": 4}, {"measurement": "MIC of antibiotic in presence of adjuvant", "setting": "P. aeruginosa R590 [1]; antibiotic Colistin", "value": "No potentiation"}, {"measurement": "MIC of antibiotic in presence of adjuvant", "setting": "P. aeruginosa R590 [1]; antibiotic Daptomycin", "value": "No potentiation"}, {"measurement": "FICI", "setting": "P. aeruginosa R590 [1]; antibiotic Fusidic acid", "value": 0.094}, {"measurement": "MIC of antibiotic in presence of adjuvant", "setting": "P. aeruginosa R590 [1]; antibiotic Fusidic acid", "value": 2, "unit": "µg/mL"}, {"measurement": "Potentiation factor", "setting": "P. aeruginosa R590 [1]; antibiotic Fusidic acid", "value": 32}, {"measurement": "FICI", "setting": "P. aeruginosa R590 [1]; antibiotic Linezolid", "value": 0.1875}, {"measurement": "MIC of antibiotic in presence of adjuvant", "setting": "P. aeruginosa R590 [1]; antibiotic Linezolid", "value": 32, "unit": "µg/mL"}, {"measurement": "Potentiation factor", "setting": "P. aeruginosa R590 [1]; antibiotic Linezolid", "value": 8}, {"measurement": "FICI", "setting": "P. aeruginosa R590 [1]; antibiotic Minocycline", "value": 0.1875}, {"measurement": "MIC of antibiotic in presence of adjuvant", "setting": "P. aeruginosa R590 [1]; antibiotic Minocycline", "value": 0.5, "unit": "µg/mL"}, {"measurement": "Potentiation factor", "setting": "P. aeruginosa R590 [1]; antibiotic Minocycline", "value": 16}, {"measurement": "FICI", "setting": "P. aeruginosa R590 [1]; antibiotic Rifampicin", "value": "<0.019"}, {"measurement": "MIC of antibiotic in presence of adjuvant", "setting": "P. aeruginosa R590 [1]; antibiotic Rifampicin", "value": "<0.5", "unit": "µg/mL"}, {"measurement": "Potentiation factor", "setting": "P. aeruginosa R590 [1]; antibiotic Rifampicin", "value": ">256"}, {"measurement": "FICI", "setting": "P. aeruginosa R590 [1]; antibiotic Tetracycline", "value": 0.266}, {"measurement": "MIC of antibiotic in presence of adjuvant", "setting": "P. aeruginosa R590 [1]; antibiotic Tetracycline", "value": 4, "unit": "µg/mL"}, {"measurement": "Potentiation factor", "setting": "P. aeruginosa R590 [1]; antibiotic Tetracycline", "value": 64}, {"measurement": "FICI", "setting": "E. coli R3336; antibiotic Fusidic acid", "value": "<0.125"}, {"measurement": "MIC of antibiotic in presence of adjuvant", "setting": "E. coli R3336; antibiotic Fusidic acid", "value": 32, "unit": "µg/mL"}, {"measurement": "Potentiation factor", "setting": "E. coli R3336; antibiotic Fusidic acid", "value": ">16"}, {"measurement": "MIC of antibiotic in presence of adjuvant", "setting": "E. coli R3336; antibiotic Linezolid", "value": "No potentiation"}, {"measurement": "FICI", "setting": "E. coli R3336; antibiotic Minocycline", "value": "<0.031"}, {"measurement": "MIC of antibiotic in presence of adjuvant", "setting": "E. coli R3336; antibiotic Minocycline", "value": 0.5, "unit": "µg/mL"}, {"measurement": "Potentiation factor", "setting": "E. coli R3336; antibiotic Minocycline", "value": 64}, {"measurement": "FICI", "setting": "E. coli R3336; antibiotic Rifampicin", "value": "<0.031"}, {"measurement": "MIC of antibiotic in presence of adjuvant", "setting": "E. coli R3336; antibiotic Rifampicin", "value": 8, "unit": "µg/mL"}, {"measurement": "Potentiation factor", "setting": "E. coli R3336; antibiotic Rifampicin", "value": 64}, {"measurement": "Time to completely kill the bacteria", "setting": "A. baumannii R674", "value": 2, "unit": "h"}]}
{"smiles": "NCCCC[C@H](N)C(=O)NCCCCCCN(CCCCCCNC(=O)[C@@H](N)CCCCN)C(=O)CC(c1ccccc1)c1ccccc1", "note": "[Compound 14, N,N-bis-[(6-(^LLys)amido)hexyl] 3,3-diphenyl propanamide tetrakis trifluoroacetate]", "values": [{"measurement": "FICI", "setting": "P. aeruginosa R590 [1]; antibiotic Chloramphenicol", "value": "<0.3125"}, {"measurement": "MIC of antibiotic in presence of adjuvant", "setting": "P. aeruginosa R590 [1]; antibiotic Chloramphenicol", "value": 32, "unit": "µg/mL"}, {"measurement": "Potentiation factor", "setting": "P. aeruginosa R590 [1]; antibiotic Chloramphenicol", "value": 4}, {"measurement": "FICI", "setting": "P. aeruginosa R590 [1]; antibiotic Colistin", "value": "<0.266"}, {"measurement": "MIC of antibiotic in presence of adjuvant", "setting": "P. aeruginosa R590 [1]; antibiotic Colistin", "value": 0.25, "unit": "µg/mL"}, {"measurement": "Potentiation factor", "setting": "P. aeruginosa R590 [1]; antibiotic Colistin", "value": 4}, {"measurement": "MIC of antibiotic in presence of adjuvant", "setting": "P. aeruginosa R590 [1]; antibiotic Daptomycin", "value": "No potentiation"}, {"measurement": "FICI", "setting": "P. aeruginosa R590 [1]; antibiotic Fusidic acid", "value": "<0.012"}, {"measurement": "MIC of antibiotic in presence of adjuvant", "setting": "P. aeruginosa R590 [1]; antibiotic Fusidic acid", "value": "<0.25", "unit": "µg/mL"}, {"measurement": "Potentiation factor", "setting": "P. aeruginosa R590 [1]; antibiotic Fusidic acid", "value": ">256"}, {"measurement": "FICI", "setting": "P. aeruginosa R590 [1]; antibiotic Linezolid", "value": "<0.156"}, {"measurement": "MIC of antibiotic in presence of adjuvant", "setting": "P. aeruginosa R590 [1]; antibiotic Linezolid", "value": 32, "unit": "µg/mL"}, {"measurement": "Potentiation factor", "setting": "P. aeruginosa R590 [1]; antibiotic Linezolid", "value": 8}, {"measurement": "FICI", "setting": "P. aeruginosa R590 [1]; antibiotic Minocycline", "value": "<0.156"}, {"measurement": "MIC of antibiotic in presence of adjuvant", "setting": "P. aeruginosa R590 [1]; antibiotic Minocycline", "value": 1, "unit": "µg/mL"}, {"measurement": "Potentiation factor", "setting": "P. aeruginosa R590 [1]; antibiotic Minocycline", "value": 8}, {"measurement": "FICI", "setting": "P. aeruginosa R590 [1]; antibiotic Rifampicin", "value": "<0.016"}, {"measurement": "MIC of antibiotic in presence of adjuvant", "setting": "P. aeruginosa R590 [1]; antibiotic Rifampicin", "value": "<0.125", "unit": "µg/mL"}, {"measurement": "Potentiation factor", "setting": "P. aeruginosa R590 [1]; antibiotic Rifampicin", "value": ">1024"}, {"measurement": "FICI", "setting": "P. aeruginosa R590 [1]; antibiotic Tetracycline", "value": "<0.1875"}, {"measurement": "MIC of antibiotic in presence of adjuvant", "setting": "P. aeruginosa R590 [1]; antibiotic Tetracycline", "value": 16, "unit": "µg/mL"}, {"measurement": "Potentiation factor", "setting": "P. aeruginosa R590 [1]; antibiotic Tetracycline", "value": 16}, {"measurement": "FICI", "setting": "E. coli R3336; antibiotic Fusidic acid", "value": "<0.0625"}, {"measurement": "MIC of antibiotic in presence of adjuvant", "setting": "E. coli R3336; antibiotic Fusidic acid", "value": 16, "unit": "µg/mL"}, {"measurement": "Potentiation factor", "setting": "E. coli R3336; antibiotic Fusidic acid", "value": ">32"}, {"measurement": "MIC of antibiotic in presence of adjuvant", "setting": "E. coli R3336; antibiotic Linezolid", "value": "No potentiation"}, {"measurement": "FICI", "setting": "E. coli R3336; antibiotic Minocycline", "value": "<0.0156"}, {"measurement": "MIC of antibiotic in presence of adjuvant", "setting": "E. coli R3336; antibiotic Minocycline", "value": "<0.25", "unit": "µg/mL"}, {"measurement": "Potentiation factor", "setting": "E. coli R3336; antibiotic Minocycline", "value": ">128"}, {"measurement": "FICI", "setting": "E. coli R3336; antibiotic Rifampicin", "value": "<0.047"}, {"measurement": "MIC of antibiotic in presence of adjuvant", "setting": "E. coli R3336; antibiotic Rifampicin", "value": 4, "unit": "µg/mL"}, {"measurement": "Potentiation factor", "setting": "E. coli R3336; antibiotic Rifampicin", "value": 128}, {"measurement": "Time to kill bacteria", "setting": "P. aeruginosa R590 [2]", "value": 12, "unit": "h"}]}
